Test results reported in patent US4054734A, “Amphotericin complexes containing citric acid and calcium” (priority 1976, dated 1977).

How the values were obtained:
[1] = solubility in methanol adjusted to pH 9.5 with triethylamine; assay type: physicochemical; conditions: pH adjusted to 9.5 with triethylamine
[2] = solubility in methanol; assay type: physicochemical
Method: The complexes of the present invention are less soluble in methanol than amphotericin B. Forty mg of the complexes of the present invention are soluble in 750 ml of methanol, whereas 100 mg of amphotericin B are soluble in 750 ml of methanol.

Compound | solubility in methanol at pH 9.5 (in words) ([1]; 100 mg in 80 ml of methanol) | solubility in methanol (in words) ([2]; 100 mg in 750 ml of methanol) | amount soluble in methanol ([2]; in 750 ml of methanol) | extent of solubility in methanol at pH 9.5 ([1]; 100 mg added to 80 ml of methanol) | extent of solubilization in methanol ([2]; 100 mg added to 750 ml of methanol)
C[C@@H]1[C@H](O)[C@@H](C)/C=C/C=C/C=C/C=C/C=C/C=C/C=C/[C@H](O[C@@H]2O[C@H](C)[C@@H](O)[C@H](N)[C@@H]2O)C[C@@H]2O[C@](O)(C[C@@H](O)C[C@@H](O)[C@H](O)CC[C@@H](O)C[C@@H](O)CC(=O)O[C@H]1C)C[C@H](O)[C@H]2C(=O)O [amphotericin B] | completely soluble | completely soluble | 100 mg | – | –
Amphotericin B-Calcium-Oxalic Acid Complex [Example 1] | – | – | – | 35% | 40%
